# Patent US20090215835A1, “TREATMENT OF CANCER WITH SORAFENIB” (priority 2005, published 2009)
# What was measured:
# Type in all cases: in vivo, human
# [1] = system: inoperable hepatocellular carcinoma (HCC); experiment: Tumor response, TTP and survival in patients with inoperable hepatocellular carcinoma on oral sorafenib; conditions: 400 mg bid oral
# Experimental: (§1) Patients with inoperable hepatocellular carcinoma (HCC), no prior systemic treatment, and Child-Pugh (CP) score of A or B, received oral sorafenib at 400 mg bid continuously in 4-week cycles. Tumor response was assessed every two cycles using modified WHO criteria and independent radiologic review. Plasma samples were collected to evaluate the pharmacokinetics (PK) of sorafenib. Biomarker assays were performed in selected patients. These included phospho-ERK levels via immunohistochemistry in pretreatment biopsies, plasma HER-2/neu analysis, plasma protein proteomics via mass spectrometry, and blood cell RNA expression patterns via Affymetrix GeneChip microarray analysis.
# [2] = Drug-related toxicities in HCC patients on oral sorafenib; conditions: 400 mg bid oral
# Experimental: as §1
# [3] = Pharmacokinetics of sorafenib in plasma of HCC patients; conditions: Child-Pugh A versus B HCC patients, 400 mg bid oral
# Experimental: as §1
# [4] = 137 HCC patients, independent radiologic review
substance,measurement,setting,value
N-[4-chloro-3-(trifluoromethyl)phenyl]-N′-{4-[2-carbamoyl-1-oxo-(4-pyridyloxy)]phenyl}urea [sorafenib],patients who achieved a partial response,"[1]; 137 HCC patients, continuous 4-week cycles, independent radiologic review, modified WHO criteria",2.2%
same,patients who achieved a minor response,[1]; [4],5.8%
same,patients with stable disease for at least 16 weeks as best response,[1]; [4],33.6%
same,median overall survival,[1]; HCC patients,9.2 months
same,median TTP,"[1]; investigator-assessed, HCC patients",4.2 months
same,grade ¾ drug-related toxicity leading to dose delay and/or modification: diarrhea,[2],4.4%
same,grade ¾ drug-related toxicity leading to dose delay and/or modification: fatigue,[2],5.8%
same,grade ¾ drug-related toxicity leading to dose delay and/or modification: hand-foot skin reaction,[2],5.1%
same,pharmacokinetic differences between CP A and B patients,[3],no pharmacokinetic differences
